Converted amounts (≈) assume the structure as drawn.
What was measured:
[1] = Solubility of Compound 1 in pharmaceutical solvents at 25° C.; format: physicochemical
Source text: Compound 1 is a nonpeptide vasopressin receptor antagonist and is insoluble in aqueous solutions throughout the physiological pH range (1.2 to 7.5).

[2] = Precipitation of Compound 1 from cosolvent systems upon addition of water; format: physicochemical; details: cosolvent systems of PEG 400 or 300, Benzyl Alcohol, Ethanol and low amounts of bile salts; water at 30% levels in final mixture
Source text: In additional combinations as cosolvent systems, of PEG 400 or 300, Benzyl Alcohol, Ethanol and low amounts of bile salts (e.g. Sodium Deoxytauro Cholate), Compound 1 precipitated upon an addition of water at 30% levels in the final aqueous-organic mixture.

Compound: Cc1ccc(F)cc1C(=O)Nc1ccc(C(=O)N2Cc3cccn3Cc3ccccc32)c(Cl)c1 [Compound 1, 5-fluoro-2-methyl-N-[4-(5H-pyrrolo[2,1-c][1,4]benzodiazepin-10(11H)-ylcarbonyl)-3-chlorophenyl]benzamide]
- solubility ([1]; aqueous buffer, 10 mM Phosphate buffer (pH 7.4), 25° C.): < 0.001 µg/mL
- solubility ([1]; aqueous with cosolvent or surfactant or cyclodextrin, Aqueous solution of Poloxamer 188 (10, 20 and 30%), 25° C.): < 0.001 µg/mL
- solubility ([1]; aqueous with cosolvent or surfactant or cyclodextrin, Cremophor EL, 25° C.): 5100 µg/mL (≈ 10800 µM)
- solubility ([1]; aqueous with cosolvent or surfactant or cyclodextrin, Gelucire 48109, 25° C.): 2260 µg/mL (≈ 4770 µM)
- solubility ([1]; aqueous with cosolvent or surfactant or cyclodextrin, Labrasol, 25° C.): 7500 µg/mL (≈ 15800 µM)
- solubility ([1]; aqueous with cosolvent or surfactant or cyclodextrin, PEG 300/Alcohol/Water (40:30:30), 25° C.): 280 µg/mL (≈ 591 µM)
- solubility ([1]; aqueous with cosolvent or surfactant or cyclodextrin, Sodium Lauryl sulfate, 25° C.): 20 µg/mL (≈ 42.2 µM)
- solubility ([1]; fassgf or other biorelevant, SIF without enzyme, 25° C.): < 0.001 µg/mL
- solubility ([1]; oil or lipid, Ethyl oleate, 25° C.): 200 µg/mL (≈ 422 µM)
- solubility ([1]; oil or lipid, Miglyol 812, 25° C.): 290 µg/mL (≈ 612 µM)
- solubility ([1]; oil or lipid, Neobee M5, 25° C.): 520 µg/mL (≈ 1100 µM)
- solubility ([1]; oil or lipid, Oleic acid, 25° C.): 40 µg/mL (≈ 84.4 µM)
- solubility ([1]; oil or lipid, Olive oil, 25° C.): 30 µg/mL (≈ 63.3 µM)
- solubility ([1]; oil or lipid, Propylene glycol Laurate, 25° C.): 680 µg/mL (≈ 1430 µM)
- solubility ([1]; oil or lipid, Safflower oil, 25° C.): < 0.001 µg/mL
- solubility ([1]; oil or lipid, Soybean oil, 25° C.): < 0.001 µg/mL
- solubility ([1]; organic solvent or mixture, Benzyl Alcohol, 25° C.): 21000 µg/mL (≈ 44400 µM)
- solubility ([1]; organic solvent or mixture, Benzyl Benzoate, 25° C.): 3410 µg/mL (≈ 7200 µM)
- solubility ([1]; organic solvent or mixture, Ethanol, 25° C.): 1890 µg/mL (≈ 3990 µM)
- solubility ([1]; organic solvent or mixture, PEG 300, 25° C.): 14900 µg/mL (≈ 31400 µM)
- solubility ([1]; organic solvent or mixture, PEG 300/Alcohol (50:50), 25° C.): 8750 µg/mL (≈ 18500 µM)
- solubility ([1]; organic solvent or mixture, PEG 400, 25° C.): 26300 µg/mL (≈ 55500 µM)
- solubility ([1]; organic solvent or mixture, PEG 400/Benzyl Alcohol (80:20), 25° C.): 14600 µg/mL (≈ 30800 µM)
- solubility ([1]; organic solvent or mixture, Triacetin, 25° C.): 2700 µg/mL (≈ 5700 µM)
- Solubility in partially aqueous solvents ([1]; partially aqueous solvents of pharmaceutically acceptable hydrophilic and lipophilic solvents): limited solubility
- solubility ([1]; plasma or biological fluid, Human Serum Albumin, 25° C.): 16 µg/mL (≈ 33.8 µM)
- solubility ([1]; propylene glycol (printed: Propylyne glycol), organic solvent or mixture, Propylyne glycol, 25° C.): 600 µg/mL (≈ 1270 µM)
- solubility ([1]; simulated gastric fluid, SGF without enzyme, 25° C.): < 0.001 µg/mL
- Solubility in aqueous solutions ([1]; throughout the physiological pH range (1.2 to 7.5)): insoluble
- Behaviour upon addition of water [2]: precipitated

— patent US20070178147A1, “Liposomal compositions” (priority 2005, published 2007)
